Assays:
Glutamate NMDA receptor = experiment: Tested for affinity by radioligand [3H]-TCP displacement from phencyclidine binding site (PCP) in rat homogenates
[1] = biological target: T1, Sodium-dependent dopamine transporter (Rattus norvegicus, UniProt P23977); experiment: Tested for inhibition of radioligand [3H]dopamine (DA) uptake in rat synaptosomes; assay type: subcellular, Brain
[2] = biological target: T1, Sodium-dependent dopamine transporter; experiment: Tested for radioligand [3H]BTCP displacement from dopamine transporter in rat forebrain
[3] = biological target: T1, Sodium-dependent dopamine transporter; experiment: Tested for radioligand [3H]cocaine displacement from dopamine transporter in rat forebrain

T1 sequence (P23977 whole entry): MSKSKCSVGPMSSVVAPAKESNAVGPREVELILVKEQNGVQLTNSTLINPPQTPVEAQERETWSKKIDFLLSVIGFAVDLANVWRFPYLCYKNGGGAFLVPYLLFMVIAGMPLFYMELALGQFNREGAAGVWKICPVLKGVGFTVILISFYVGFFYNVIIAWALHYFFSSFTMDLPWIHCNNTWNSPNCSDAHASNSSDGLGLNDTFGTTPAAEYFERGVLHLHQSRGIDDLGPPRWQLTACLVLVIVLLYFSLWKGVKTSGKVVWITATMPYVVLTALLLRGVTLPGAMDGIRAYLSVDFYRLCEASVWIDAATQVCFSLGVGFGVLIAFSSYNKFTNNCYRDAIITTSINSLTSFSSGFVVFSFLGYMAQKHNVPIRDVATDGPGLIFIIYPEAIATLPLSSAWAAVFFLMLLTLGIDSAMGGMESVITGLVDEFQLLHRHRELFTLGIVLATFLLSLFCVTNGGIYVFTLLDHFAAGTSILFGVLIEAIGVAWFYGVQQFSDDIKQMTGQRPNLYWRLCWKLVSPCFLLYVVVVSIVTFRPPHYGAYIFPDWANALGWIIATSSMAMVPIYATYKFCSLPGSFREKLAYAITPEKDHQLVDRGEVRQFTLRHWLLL

NCCCNC1(c2cc3ccccc3s2)CCCCC1
Ki (Glutamate NMDA receptor): > 10000 nM

CNCCCNC1(c2cc3ccccc3s2)CCCCC1
Ki (Glutamate NMDA receptor): > 10000 nM | IC50 [1]: 89 nM | IC50 [2]: 8 nM | IC50 [3]: 746 nM

CCCCN(C)C1(c2cc3ccccc3s2)CCCCC1
Ki (Glutamate NMDA receptor): > 10000 nM | IC50 [1]: 33 nM | IC50 [2]: 21 nM | IC50 [3]: 161 nM

CCCCNC1(c2cc3ccccc3s2)CCCCC1
Ki (Glutamate NMDA receptor): > 10000 nM | IC50 [1]: 7 nM | IC50 [2]: 0.3 nM | IC50 [3]: 60 nM

COC(=O)[C@H]1[C@@H](OC(=O)c2ccccc2)C[C@@H]2CC[C@H]1N2C [COCAINE]
Ki (Glutamate NMDA receptor): > 10000 nM

CC(C)=CCNC1(c2cc3ccccc3s2)CCCCC1
Ki (Glutamate NMDA receptor): > 10000 nM | IC50 [1]: 14 nM | IC50 [2]: 8 nM | IC50 [3]: 50 nM

C=CCNC1(c2cc3ccccc3s2)CCCCC1
Ki (Glutamate NMDA receptor): > 10000 nM | IC50 [1]: 11 nM | IC50 [2]: 7 nM | IC50 [3]: 57 nM

c1ccc2sc(C3(N4CCCCC4)CCCCC3)cc2c1
Ki (Glutamate NMDA receptor): > 10000 nM | IC50 [1]: 11 nM | IC50 [3]: 39 nM

CCCCN(CCCC)C1(c2cc3ccccc3s2)CCCCC1
Ki (Glutamate NMDA receptor): > 10000 nM | IC50 [1]: 1360 nM | IC50 [2]: 124 nM | IC50 [3]: 386 nM

Clc1ccc(CCNCCNC2(c3cc4ccccc4s3)CCCCC2)cc1Cl
Ki (Glutamate NMDA receptor): > 10000 nM | IC50 [1]: 174 nM | IC50 [2]: 211 nM | IC50 [3]: 713 nM

CNCCCCNC1(c2cc3ccccc3s2)CCCCC1
Ki (Glutamate NMDA receptor): > 10000 nM | IC50 [1]: 33 nM | IC50 [2]: 50 nM | IC50 [3]: 328 nM

NCCNC1(c2cc3ccccc3s2)CCCCC1
Ki (Glutamate NMDA receptor): > 10000 nM | IC50 [1]: 88 nM | IC50 [2]: 30 nM | IC50 [3]: 170 nM

Clc1ccc(CCNC2(c3cc4ccccc4s3)CCCCC2)cc1Cl
Ki (Glutamate NMDA receptor): > 10000 nM | IC50 [1]: > 5000 nM | IC50 [2]: 1000 nM | IC50 [3]: > 5000 nM

CCCN(CCC)C1(c2cc3ccccc3s2)CCCCC1
Ki (Glutamate NMDA receptor): > 10000 nM | IC50 [1]: 81 nM | IC50 [2]: 37 nM | IC50 [3]: 220 nM

c1ccc2sc(C3(NCC4CCC4)CCCCC3)cc2c1
Ki (Glutamate NMDA receptor): > 10000 nM | IC50 [1]: 7 nM | IC50 [2]: 4 nM | IC50 [3]: 37 nM

CN(C)C1(c2cc3ccccc3s2)CCCCC1
Ki (Glutamate NMDA receptor): > 10000 nM | IC50 [1]: 51 nM | IC50 [2]: 27 nM | IC50 [3]: 84 nM

CCNC1(c2cc3ccccc3s2)CCCCC1
Ki (Glutamate NMDA receptor): > 10000 nM | IC50 [1]: 22 nM | IC50 [2]: 22 nM | IC50 [3]: 165 nM

CCCCCNC1(c2cc3ccccc3s2)CCCCC1
Ki (Glutamate NMDA receptor): > 10000 nM | IC50 [1]: 34 nM | IC50 [2]: 24 nM | IC50 [3]: 337 nM

CNC1(c2cc3ccccc3s2)CCCCC1
Ki (Glutamate NMDA receptor): > 10000 nM | IC50 [1]: 57 nM | IC50 [2]: 101 nM | IC50 [3]: 270 nM

CNCCNC1(c2cc3ccccc3s2)CCCCC1
Ki (Glutamate NMDA receptor): > 10000 nM | IC50 [1]: 29 nM | IC50 [2]: 17 nM | IC50 [3]: 63 nM

CCCN(CC)C1(c2cc3ccccc3s2)CCCCC1
Ki (Glutamate NMDA receptor): > 10000 nM | IC50 [1]: 17 nM | IC50 [2]: 20 nM | IC50 [3]: 207 nM

c1ccc(CNC2(c3cc4ccccc4s3)CCCCC2)cc1
Ki (Glutamate NMDA receptor): > 10000 nM | IC50 [1]: 196 nM | IC50 [2]: 143 nM

CCCNC1(c2cc3ccccc3s2)CCCCC1
Ki (Glutamate NMDA receptor): > 10000 nM | IC50 [1]: 5 nM | IC50 [2]: 4 nM | IC50 [3]: 57 nM

CCN(CC)C1(c2cc3ccccc3s2)CCCCC1
Ki (Glutamate NMDA receptor): > 10000 nM | IC50 [1]: 12 nM | IC50 [2]: 12 nM | IC50 [3]: 42 nM

O=C(Cc1ccc(Cl)c(Cl)c1)NCCNC1(c2cc3ccccc3s2)CCCCC1
Ki (Glutamate NMDA receptor): > 10000 nM | IC50 [1]: 947 nM | IC50 [2]: 579 nM | IC50 [3]: 1480 nM

NCC(=O)NC1(c2cc3ccccc3s2)CCCCC1
Ki (Glutamate NMDA receptor): > 10000 nM | IC50 [1]: 138 nM | IC50 [2]: 114 nM | IC50 [3]: 841 nM

c1ccc2sc(C3(NCC4CC4)CCCCC3)cc2c1
Ki (Glutamate NMDA receptor): > 10000 nM | IC50 [1]: 4 nM | IC50 [2]: 1 nM | IC50 [3]: 23 nM

O=C1NCCN1C1(c2cc3ccccc3s2)CCCCC1
Ki (Glutamate NMDA receptor): > 10000 nM | IC50 [1]: 2120 nM | IC50 [2]: 1740 nM | IC50 [3]: > 5000 nM

Source: ChEMBL document CHEMBL1126559, “Further studies of the structure-activity relationships of 1-[1-(2-benzo[b]thienyl)cyclohexyl]piperidine. Synthesis and evaluation of 1-(2-benzo[b]thienyl)-N,N-dialkylcyclohexylamines at dopamine uptake and phencyclidine binding sites” (J Med Chem, 1993)
